Data: PubChem BioAssay (NCI)
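Test compounds were applied to cells in 96-well plates for 48 hours at 5 doses. At the TGI there is no net growth.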

What was measured:
Test in all cases: NCI anticancer screen, dose series, 48 h
NCI-H23 lung = test system: NCI-H23 lung
MDA-MB-435 = test system: MDA-MB-435
BT-549 breast = test system: BT-549 breast
M14 melanoma = test system: M14 melanoma
SK-OV-3 ovarian = test system: SK-OV-3 ovarian
DU-145 prostate = test system: DU-145 prostate
LOX IMVI melanoma = test system: LOX IMVI melanoma
UACC-62 melanoma = test system: UACC-62 melanoma
HCT-116 colon = test system: HCT-116 colon
COLO 205 colon = test system: COLO 205 colon

Work on N#Cc1c(N2CCN(c3ccc([N+](=O)[O-])cc3)CC2)[n+](=O)c2ccc(Cl)cc2n1[O-] yielded a TGI (NCI-H23 lung) of 3.96 µM, a TGI (MDA-MB-435) of 8.07 µM and a TGI (BT-549 breast) of 1.61 µM. It also gave a TGI (M14 melanoma) greater than 23.4 µM, a TGI (SK-OV-3 ovarian) greater than 23.9 µM and a TGI (DU-145 prostate) of 6.7 µM. It also gave a TGI (LOX IMVI melanoma) of 1.15 µM.

Compound NC(=O)CS(=O)CC(N)C(=O)O (stereo unspecified) has a TGI (NCI-H23 lung) greater than 100 µM, a TGI (MDA-MB-435) greater than 100 µM and a TGI (UACC-62 melanoma) greater than 100 µM. For the same compound, the TGI (BT-549 breast) was greater than 100 µM, the TGI (HCT-116 colon) was greater than 100 µM and the TGI (M14 melanoma) was greater than 100 µM. The TGI (DU-145 prostate) was greater than 100 µM and the TGI (LOX IMVI melanoma) was greater than 100 µM.

COC(=O)CCN(CCC(=O)OC)C1CC1 showed a TGI (COLO 205 colon) greater than 100 µM, a TGI (NCI-H23 lung) greater than 100 µM and a TGI (MDA-MB-435) greater than 100 µM. The TGI (UACC-62 melanoma) was greater than 100 µM, the TGI (HCT-116 colon) was greater than 100 µM and the TGI (M14 melanoma) was greater than 100 µM. For the same compound, the TGI (SK-OV-3 ovarian) was greater than 100 µM, the TGI (DU-145 prostate) was greater than 100 µM and the TGI (LOX IMVI melanoma) was greater than 100 µM.

With O=C(O)c1ccc(Nc2nc3ccccc3nc2C(=O)O)cc1 the TGI (COLO 205 colon) was greater than 100 µM, the TGI (NCI-H23 lung) was greater than 100 µM and the TGI (MDA-MB-435) was greater than 100 µM. It also gave a TGI (UACC-62 melanoma) greater than 100 µM, a TGI (BT-549 breast) greater than 100 µM and a TGI (HCT-116 colon) greater than 100 µM. The TGI (M14 melanoma) was greater than 100 µM, the TGI (SK-OV-3 ovarian) was greater than 100 µM and the TGI (DU-145 prostate) was greater than 100 µM.

In the case of COc1ccc(C2c3cc4c(cc3OC(N3CCCCC3)C2C)OCO4)cc1 (stereo unspecified), the TGI (COLO 205 colon) is reported as greater than 100 µM, the TGI (NCI-H23 lung) is reported as greater than 100 µM and the TGI (MDA-MB-435) is reported as greater than 100 µM. The TGI (UACC-62 melanoma) was greater than 100 µM, the TGI (HCT-116 colon) was greater than 100 µM and the TGI (M14 melanoma) was greater than 100 µM. For the same compound, the TGI (DU-145 prostate) was greater than 100 µM and the TGI (LOX IMVI melanoma) was greater than 100 µM.

With CC(=O)Nc1ccc(-c2nnc(SCC(=O)Nc3ccccc3C)o2)cc1 the TGI (COLO 205 colon) was greater than 100 µM, the TGI (NCI-H23 lung) was greater than 100 µM and the TGI (UACC-62 melanoma) was greater than 100 µM. The TGI (HCT-116 colon) was 29.4 µM, the TGI (M14 melanoma) was greater than 100 µM and the TGI (SK-OV-3 ovarian) was greater than 100 µM. For the same compound, the TGI (LOX IMVI melanoma) was greater than 100 µM.

Compound COc1ccc2c(c1)CC[C@@H]1[C@@H]2CC[C@]2(C)C(=O)/C(=C/c3cc(OC)c(OC)c(OC)c3)C[C@@H]12 has a TGI (COLO 205 colon) greater than 100 µM, a TGI (NCI-H23 lung) of 53.3 µM and a TGI (MDA-MB-435) greater than 100 µM. For the same compound, the TGI (UACC-62 melanoma) was greater than 100 µM, the TGI (BT-549 breast) was 63.9 µM and the TGI (HCT-116 colon) was greater than 100 µM. It also gave a TGI (M14 melanoma) of 41.2 µM, a TGI (SK-OV-3 ovarian) greater than 100 µM and a TGI (DU-145 prostate) greater than 100 µM.

Work on COc1nc2[nH]ccc2c(=O)n1C yielded a TGI (COLO 205 colon) greater than 100 µM, a TGI (NCI-H23 lung) greater than 100 µM and a TGI (HCT-116 colon) greater than 100 µM. The TGI (M14 melanoma) was greater than 100 µM and the TGI (LOX IMVI melanoma) was greater than 100 µM.

CCOC(=O)N(C)C1(c2ccccc2)CCN(CCCC(=O)c2ccc(F)cc2)CC1 gave a TGI (COLO 205 colon) of 29.7 µM, a TGI (NCI-H23 lung) greater than 100 µM and a TGI (MDA-MB-435) of 53.6 µM. For the same compound, the TGI (UACC-62 melanoma) was greater than 100 µM, the TGI (HCT-116 colon) was greater than 100 µM and the TGI (M14 melanoma) was 32.1 µM. The TGI (SK-OV-3 ovarian) was greater than 100 µM, the TGI (DU-145 prostate) was greater than 100 µM and the TGI (LOX IMVI melanoma) was 42.3 µM.

CC(=O)OCC1OC(c2nnc(C)o2)=CC(OC(C)=O)C1OC(C)=O (stereo unspecified) showed a TGI (COLO 205 colon) greater than 100 µM, a TGI (NCI-H23 lung) greater than 100 µM and a TGI (MDA-MB-435) greater than 100 µM. For the same compound, the TGI (BT-549 breast) was greater than 100 µM, the TGI (HCT-116 colon) was greater than 100 µM and the TGI (DU-145 prostate) was greater than 100 µM. For the same compound, the TGI (LOX IMVI melanoma) was greater than 100 µM.

In the case of CC(=O)NC1=C(C)C(=O)c2c(nc3n2CC[C@H]3OC(C)=O)C1=O, the TGI (COLO 205 colon) is reported as 3.36 µM, the TGI (NCI-H23 lung) is reported as 8.41 µM and the TGI (MDA-MB-435) is reported as 1.85 µM. It also gave a TGI (UACC-62 melanoma) of 3.77 µM, a TGI (BT-549 breast) of 3.01 µM and a TGI (HCT-116 colon) of 3.14 µM. It also gave a TGI (M14 melanoma) of 4.01 µM, a TGI (DU-145 prostate) of 29.4 µM and a TGI (LOX IMVI melanoma) of 2.11 µM.

With O=C(NN1C(=O)C=CC1=O)c1ccccc1Nc1ccccc1C(=O)NN1C(=O)C=CC1=O the TGI (COLO 205 colon) was greater than 100 µM, the TGI (NCI-H23 lung) was greater than 100 µM and the TGI (MDA-MB-435) was greater than 100 µM. For the same compound, the TGI (UACC-62 melanoma) was greater than 100 µM, the TGI (BT-549 breast) was greater than 100 µM and the TGI (HCT-116 colon) was greater than 100 µM. For the same compound, the TGI (M14 melanoma) was greater than 100 µM, the TGI (DU-145 prostate) was greater than 100 µM and the TGI (LOX IMVI melanoma) was greater than 100 µM.
